According to US20260273020A1, “OBESTATIN FOR USE AS ANTINEOPLASTIC AGENT IN THE TREATMENT OF PANCREATIC CANCER” (SERVIZO GALEGO DE SAÚDE, priority 2023, published 2026):

Test system: aSMA, HSP47, vimentin, collagen I, fibronectin, ADRP
Experiment: Immunoblot of pancreatic tumors: fibrosis and CAF markers
Assay type: in vivo, C57BL/6J mice
Conditions: obestatin 500 nmol/Kg/72 h
Procedure: FIG. 6. Immunoblot analysis of aSMA, vimentin, collagen I, fibronectin, and ADPR in the pancreatic tumors of C57BL/6J mice (n=4) orthotopically injected with KPC FC1242 cells and treated with vehicle [NaCl, 0.9% (w/v)] or obestatin (500 nmol/Kg/72 h). Results are expressed as fold of control of the non-treated injected mice [control; mean±SE (*, P<0.05)].
Mice were weighed at set times over the 15-day period. The sterilized surgical material was used for the tissue extraction. Pancreases and muscles were carefully removed from each animal minimizing contamination with surrounding tissue or mouse hair. Pancreases and muscles were weighed. The skeletal muscles selected were: tibialis anterior, TA; extensor digitorum longus, EDL; gastrocnemius, GAST; soleus, SOL; and diaphragm, DIA. Pancreases were also measured with a scale (cm) and pictures were taken. • Histology—Pancreas samples for histology were fixed in 4% paraformaldehyde in PBS at room temperature overnight. After fixation, samples were dehydrated and embedded in paraffin blocks. For this study, 3-micron sections were cut from each block and placed on pre-cleaned slides (Thermo Fisher Scientific, Waltham, MA, USA). The sectioned tissue slides were covered with a thin layer of paraffin, stoked at 60° C. for 1 hour and stored protected from light at room temperature to preserve the antigenicity of sections. • Immunoblot—For immunoblot analysis, pancreases were immediately frozen in dry ice and stored at −80° C. until use. Tissues were homogenized using a TissueLyser II tissue homogenizer (Qiagen, Hilden, DE), in 200 μL of RIPA lysis buffer at 30 Hz for 3 min. The lysates were clarified by centrifugation (18,000×g, 15 min, 4° C.), and the protein concentration was quantified by the Quantipro™ BCA assay kit (Sigma-Aldrich, St. Louis, MO, US).
Tissues were disrupted and homogenized in ice-cold lysis buffer [50 mM Tris-HCl pH 7.2, 150 mM NaCl, 1 mM EDTA, 1% (v/v) NP-40, 0.25% (w/v) Na-deoxycholate, protease inhibitor cocktail (PIC; 1:100; Sigma Chemical Co., St. Luis, MO, US), phosphatase inhibitor cocktail (PHIC; 1:100; Sigma Chemical Co., St. Luis, MO, US)] with 5 mm stainless steel beads using a TissueLyser (Qiagen, Hilden, DE) at 30 Hz for 3 min. The soluble cell lysates were pre-cleared by centrifuging at 14,000 rpm for 15 min. Supernatants were recovered and the protein was quantified with BCA Protein Assay Kit (Thermo Fisher Scientific, Rockford, IL, US). The same amount of protein for each sample was separated on 7-15% SDS/polyacrylamide gels and transferred to nitrocellulose membranes (Bio-Rad, Hercules, CA, US). The blots were incubated with 5% bovine serum albumin (BSA) in a Tris buffer solution (TBS) containing Tween-20 [TBST; 20 mM Tris-HCl (pH 8.0), 150 mM NaCl, 0.1% (v/v) Tween-20, solution used for all incubation and washing steps] for 1 h. The blots were then incubated with the corresponding primary antibodies and subsequently were incubated with the corresponding peroxidase-conjugated IgG antibody (Table 1). After washing, the signals were visualized using an ECL plus Western Blotting Detection System (Pierce ECL Western Blotting Substrate; Thermo Fisher Scientific, Pierce, Rockford, IL, US). The image processing was performed using the NIH Image Software ImageJ 1.53o (National Institutes of Health, Bethesda, MD, US).

Question: Which results are given for obestatin?
Answer: adipophilin (ADRP) diminished: 42.6±8.8%; augment of vimentin: 111.1±19.1%; higher levels of HSP47: 49.5±17.7%; increased expression of aSMA: 53.7±7.3%; inhibition of expression of collagen: 60.1±2.9%; inhibition of expression of fibronectin: 57.0±7.1%
